One data set has as its target T1, c-Kit(V654A) (Homo sapiens, UniProt P10721, V654A).
T1 construct: recombinant human c-Kit, amino acids 544-end containing the V654A mutation; GST (N)
The experiment in a line: c-Kit(V654A) assay (33P-ATP filter binding kinase assay). Format: biochemical. Conditions: recombinant human c-Kit aa 544-end V654A, ATP 200 μM. A digest of the protocol: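 Radiometric filter-binding read-out: substrate 33P incorporation counted by scintillation after P30 filtermat washes in 75 mM phosphoric acid and methanol. Enzyme: N-GST recombinant human c-Kit aa 544-end carrying V654A.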

Data set [1] addresses T2, GIST430/654 cell line expressing mutated constitutively active cKIT receptor tyrosine kinase (Δ560-576 deletion and V654A point mutation) (Homo sapiens, UniProt P10721, DEL560-576/V654A).
T2 construct: endogenous in cells; host or cells: GIST430/654 cells
The experiment in a line: Cellular cKIT autophosphorylation (phospho-Y307-cKIT, Luminex bead assay) in GIST430/654 cells. Format: cell-based. Conditions: compounds 45 min, read-out: GIST 430/654 IC50. A digest of the protocol: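 Phospho-Y307 cKIT in lysates was measured on a Luminex bead assay, with total-cKIT capture overnight at 4 °C and phosphospecific plus PE secondary detection. Cells had 45 min exposure to a compound dilution series the day after plating: GIST430 (Δ560-576) or GIST430/654 (Δ560-576/V654A, grown with 100 nM imatinib). IC50 values are relative to 0.3% DMSO-treated cells.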

Data set [2] deals with T3, GIST430 cell line expressing constitutive active cKIT receptor tyrosine kinase (Δ560-576 deletion) (Homo sapiens, UniProt P10721, DEL560-576).
T3 construct: endogenous in cells; host or cells: GIST430 cells
The data set is described as follows: Cellular cKIT autophosphorylation (phospho-Y307-cKIT, Luminex bead assay) in GIST430 cells. Type of data set: cell-based. The settings on record: cKIT autophosphorylation, GIST430 cells, compounds 45 min; read-out: GIST 430 IC50. The protocol:
Assay Principle for Cellular Testing of cKIT Mutant Inhibitors
The GIST430 cell line expressing constitutive active cKIT receptor tyrosine kinase (Δ560-576 deletion) and the Imatinib resistant GIST430/654 cell line expressing mutated constitutively active cKIT receptor tyrosine kinase (Δ560-576 deletion and V654A point mutation) were employed for assessing cellular potency of compounds. Cellular activity of mutant cKIT was determined by the degree of cKIT autophosphorylation at tyrosine 307 using a Luminex-based bead assay. GIST430 cells were plated with 22,000 cells per well of a 96-well plate in 100 μl medium (85% IMDM/15% FCS) and GIST430/654 cells were plated with 25,000 cells per well of a 96-well plate in 100 μl medium (85% IMDM/15% FCS supplemented with 100 nM Imatinib). At the following day compounds were added in a serial dilution for 45 min. Then, cells were lysed with 90 μl lysis buffer (20 mM Hepes pH 7.5, 200 mM NaCl, 1.5 mM MgCl2×6H2O, 0.4 mM EDTA, 1% Triton-X-100, 1% Phosphatase-Inhibitor II, 20 mM β-Glycerolphosphat, 0.1% Protease-Inhibitor Cocktail III, 0.01% Benzonase) and lysates were cleared by centrifugation through a 96-well filter plate (0.65 μm). Samples were incubated with Luminex-beads which were coupled with an anti-total cKIT antibody overnight at 4° C. under gentle agitation. For detection of phospho-Y307-cKIT a phosphospecific antibody and a species-specific PE-labeled secondary antibody were added. The amount of phospho-Y307-cKIT was determined in a Luminex 200 instrument measuring 100 events per well within 60 seconds.
Counts from samples treated with compounds were calculated as percent of control from solvent treated (0.3% DMSO) samples. Dose-response curves were fitted and IC50 values were determined using Genedata Screener software.

Data set [3] can be described thus: Determination of Efflux-Ratio (ER) in Caco-2 cells. The settings on record: human, Caco-2, pH 7.4. In general terms: Caco-2 monolayers are a common model of the intestinal barrier.
Method: Determination of Efflux-Ratio (ER) in Caco-2 Cells
The efflux ratio of the test compounds was determined in Caco-2 human epithelial colorectal adenocarcinoma cell line (TC7 clone) using calculation of apparent permeability (Papp). Cell monolayers were differentiated in vitro for 14 days before the experiment. Subsequently, the test compound (in HBSS pH 7.4 at 1 μM final concentration) was applied on the donor side while HBSS buffer (pH 7.4) was added to the receiver wells. […] The plate was then incubated in a 5% CO2 incubator (37° C., 100% humidity). At the end of the 2 hours incubation period, 50 μL sample was removed from both donor and receiver wells and diluted 1:1 with equal volumes of acetonitrile for LC-MS/MS analysis. The LC-MS/MS analysis used a one-point calibration method from a 1 μM standard solution diluted 1:1 with equal volume of acetonitrile (consistent to the test samples).
The data was used to calculate the apparent permeabilities of the compounds in both apical to basolateral (Papp,AB) and basolateral to apical (Papp,BA) directions at 1 μM concentration in duplicate. The Papp values were calculated from the concentrations in the donor and receiver compartments using the following formula:
Efflux ratio was calculated according to the following formula:

T1 sequence (P10721 544-976 V654A): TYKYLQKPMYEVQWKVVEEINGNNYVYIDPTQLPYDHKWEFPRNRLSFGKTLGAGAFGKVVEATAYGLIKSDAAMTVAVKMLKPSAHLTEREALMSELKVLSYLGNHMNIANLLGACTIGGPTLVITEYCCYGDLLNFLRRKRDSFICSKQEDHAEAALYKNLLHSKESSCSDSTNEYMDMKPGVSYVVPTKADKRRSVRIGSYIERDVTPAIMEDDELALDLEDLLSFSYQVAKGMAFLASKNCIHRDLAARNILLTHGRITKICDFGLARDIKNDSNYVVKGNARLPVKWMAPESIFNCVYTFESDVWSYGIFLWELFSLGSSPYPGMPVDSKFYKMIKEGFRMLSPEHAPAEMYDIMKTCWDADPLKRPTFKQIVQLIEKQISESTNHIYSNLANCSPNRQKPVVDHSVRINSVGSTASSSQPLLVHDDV
T2 sequence (P10721 with tags, fused parts or gaps DEL560-576/V654A): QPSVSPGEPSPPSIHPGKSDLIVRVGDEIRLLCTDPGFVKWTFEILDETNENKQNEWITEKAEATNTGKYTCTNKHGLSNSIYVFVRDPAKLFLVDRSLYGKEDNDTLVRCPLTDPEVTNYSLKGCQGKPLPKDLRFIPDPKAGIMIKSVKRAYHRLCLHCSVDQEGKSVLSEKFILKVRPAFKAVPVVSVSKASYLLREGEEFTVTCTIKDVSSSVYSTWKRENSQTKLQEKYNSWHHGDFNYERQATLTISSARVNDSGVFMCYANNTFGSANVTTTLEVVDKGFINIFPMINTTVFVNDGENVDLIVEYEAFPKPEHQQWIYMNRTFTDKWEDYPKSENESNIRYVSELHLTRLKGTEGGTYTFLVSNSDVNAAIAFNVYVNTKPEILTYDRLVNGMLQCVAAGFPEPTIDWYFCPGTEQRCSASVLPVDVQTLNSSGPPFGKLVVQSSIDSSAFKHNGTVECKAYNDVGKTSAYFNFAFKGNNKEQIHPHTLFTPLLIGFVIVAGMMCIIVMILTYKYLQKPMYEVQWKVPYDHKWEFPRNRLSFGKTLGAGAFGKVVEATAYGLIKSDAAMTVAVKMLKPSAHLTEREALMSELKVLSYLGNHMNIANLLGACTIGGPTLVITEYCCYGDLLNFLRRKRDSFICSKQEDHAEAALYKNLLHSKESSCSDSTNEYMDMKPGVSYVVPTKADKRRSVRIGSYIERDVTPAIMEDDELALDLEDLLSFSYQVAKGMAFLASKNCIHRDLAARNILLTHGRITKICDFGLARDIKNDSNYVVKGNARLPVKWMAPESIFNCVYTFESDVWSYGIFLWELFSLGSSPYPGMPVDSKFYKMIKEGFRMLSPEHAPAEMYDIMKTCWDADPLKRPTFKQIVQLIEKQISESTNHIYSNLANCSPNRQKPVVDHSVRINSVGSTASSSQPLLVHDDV
T3 sequence (P10721 with tags, fused parts or gaps DEL560-576): as the sequence (P10721 with tags, fused parts or gaps DEL560-576/V654A) above, with A612V counted along it

The efflux ratio is a quotient of directional permeabilities that is used to spot active efflux. Turning to `Cn1cc(-c2ccc(CNc3cc(-c4cnc5cc(N6CCC(CCO)C6)ccn45)ncn3)cc2)cn1` (stereo not shown) [A178, 2-[1-(3-{6-[4-(1-methyl-1H-pyrazol-4-yl)-benzylamino]-pyrimidin-4-yl}-imidazo[1,2-a]pyridin-7-yl)-pyrrolidin-3-yl]-ethanol], the figures for the IC50 (at c-Kit(V654A); in data set [1]; in data set [2]) were 19 nM, 47 nM and 3.8 nM, respectively. For the same molecule, in data set [3], the efflux ratio at 2 h, 1 μM is < 15.
The matching figures for `c1ccn2c(-c3cc(NCc4ccc(N5CCCC5)nc4)ncn3)cnc2c1` [A147, (6-imidazo[1,2-a]pyridin-3-yl-pyrimidin-4-yl)-(6-pyrrolidin-1-yl-pyridin-3-ylmethyl)-amine]: 5.4 nM, 430 nM, 7.3 nM and < 15.
For `Cn1ncc(-c2ccc(CNc3cc(-c4cnc5cc(OCCCNC6COC6)ccn45)ncn3)cc2)n1` [A259, N-{[4-(2-methyl-2H-1,2,3-triazol-4-yl)phenyl]methyl}-6-(7-{3-[(oxetan-3-yl)amino]propoxy}imidazo[1,2-a]pyridin-3-yl)pyrimidin-4-amine], the IC50 is 3.8 nM on c-Kit(V654A), 33 nM in data set [1] and 1.8 nM in data set [2]. Further, the efflux ratio at 2 h, 1 μM in data set [3] was < 15.
For `Cn1ncc(-c2ccc(CNc3cc(-c4cnc5cc(OCCCN6CCN(C7COC7)CC6)ccn45)ncn3)cc2)n1` [A185, [4-(2-methyl-2H-[1,2,3]triazol-4-yl)-benzyl]-(6-{7-[3-(4-oxetan-3-yl-piperazin-1-yl)-propoxy]-imidazo[1,2-a]pyridin-3-yl}-pyrimidin-4-yl)-amine] the same measures were 6.7 nM, 59 nM, 1.3 nM and < 15.
The matching figures for `FC(F)(F)Oc1ccc(CNc2cc(-c3cnc4cc(OCCN5CCn6nncc6C5)ccn34)ncn2)cc1` [A265, 6-[7-(2-{4H,5H,6H,7H-[1,2,3]triazolo[1,5-a]pyrazin-5-yl}ethoxy)imidazo[1,2-a]pyridin-3-yl]-N-{[4-(trifluoromethoxy)phenyl]methyl}pyrimidin-4-amine]: 6.8 nM, 78 nM, 3.3 nM and < 15.
Consider `CO[C@@H]1CCN(c2ccc(CNc3cc(-c4cnc5ccccn45)ncn3)cn2)C1` [A146, 6-{imidazo[1,2-a]pyridin-3-yl}-N-({6-[(3R)-3-methoxypyrrolidin-1-yl]pyridin-3-yl}methyl)pyrimidin-4-amine], for which the IC50 at c-Kit(V654A) is 7 nM; in data set [1] it was 340 nM; in data set [2] it was 48 nM. Also, the efflux ratio at 2 h, 1 μM in data set [3] is < 15.
For `Cn1cc(-c2ccc(CNc3cc(-c4cnc5cc(OCC6CCN(C7COC7)CC6)ccn45)ncn3)cc2)cn1` [A78, [4-(1-methyl-1H-pyrazol-4-yl)-benzyl]-{6-[7-(1-oxetan-3-yl-piperidin-4-ylmethoxy)-imidazo[1,2-a]pyridin-3-yl]-pyrimidin-4-yl}-amine] the same measures were 9.1 nM, 79 nM, 3.6 nM and < 15.
For the molecule `Cc1cn(-c2ccn3c(-c4cc(NCc5ccc(-c6cnn(C)c6)cc5)ncn4)cnc3c2)cn1` [A267, 6-[7-(4-methyl-1H-imidazol-1-yl)imidazo[1,2-a]pyridin-3-yl]-N-{[4-(1-methyl-1H-pyrazol-4-yl)phenyl]methyl}pyrimidin-4-amine], the IC50 at c-Kit(V654A) was 4.4 nM; in data set [1] it was 63 nM; in data set [2], 1.7 nM. In addition, in data set [3], the efflux ratio at 2 h, 1 μM is < 15.
For `COc1ccn2c(-c3cc(NCc4ccc(-n5ccnn5)cc4)ncn3)cnc2c1` [A18, 6-{7-methoxyimidazo[1,2-a]pyridin-3-yl}-N-{[4-(1H-1,2,3-triazol-1-yl)phenyl]methyl}pyrimidin-4-amine] the same measures were 13 nM, 200 nM, 7.2 nM and < 15.
For `Cn1cc(-c2ccc(CNc3cc(-c4cnc5cc(OCCCN6CCC(C)(F)CC6)ccn45)ncn3)cc2)cn1` [A262, 6-{7-[3-(4-fluoro-4-methylpiperidin-1-yl)propoxy]imidazo[1,2-a]pyridin-3-yl}-N-{[4-(1-methyl-1H-pyrazol-4-yl)phenyl]methyl}pyrimidin-4-amine], the IC50 at c-Kit(V654A) amounted to 5 nM; in data set [1], 73 nM; in data set [2] it was 4.4 nM. The efflux ratio at 2 h, 1 μM in data set [3] is < 15.
For `CC1(F)CCN(CCCOc2ccn3c(-c4cc(NCc5ccc(-c6cocn6)cc5)ncn4)cnc3c2)CC1` [A263, 6-{7-[3-(4-fluoro-4-methylpiperidin-1-yl)propoxy]imidazo[1,2-a]pyridin-3-yl}-N-{[4-(1,3-oxazol-4-yl)phenyl]methyl}pyrimidin-4-amine] the same measures were 2.3 nM, 66 nM, 4.3 nM and < 15.
For `COCCOc1ccn2c(-c3cc(NCc4ccc(-c5cnn(C)c5)cc4)ncn3)cnc2c1` [A4, 6-[7-(2-methoxyethoxy)imidazo[1,2-a]pyridin-3-yl]-N-{[4-(1-methyl-1H-pyrazol-4-yl)phenyl]methyl}pyrimidin-4-amine] the same measures were 7.3 nM, 48 nM, 4.8 nM and < 15.
For `Cn1cc(-c2ccc(CNc3cc(-c4cnc5cc(OCCCN[C@@H]6CCOC6)ccn45)ncn3)cc2)cn1` [A260, N-{[4-(1-methyl-1H-pyrazol-4-yl)phenyl]methyl}-6-[7-(3-{[(3R)-oxolan-3-yl]amino}propoxy)imidazo[1,2-a]pyridin-3-yl]pyrimidin-4-amine] the same measures were 6 nM, 43 nM, 1.9 nM and 15 to 50.
For `Cn1ncc(-c2ccc(CNc3cc(-c4cnc5cc(OCCO)ccn45)ncn3)cc2)n1` [A173, 2-({3-[6-({[4-(2-methyl-2H-1,2,3-triazol-4-yl)phenyl]methyl}amino)pyrimidin-4-yl]imidazo[1,2-a]pyridin-7-yl}oxy)ethan-1-ol], the values for the IC50 (on c-Kit(V654A); in data set [1]; in data set [2]) were 3.7 nM, 57 nM and 22 nM, respectively. In addition, the efflux ratio at 2 h, 1 μM in data set [3] was < 15.
For `F[C@H]1CCN(c2ccc(CNc3cc(-c4cnc5ccccn45)ncn3)cn2)C1` [A148, N-({6-[(3S)-3-fluoropyrrolidin-1-yl]pyridin-3-yl}methyl)-6-{imidazo[1,2-a]pyridin-3-yl}pyrimidin-4-amine] the same measures were 4.9 nM, 220 nM, 7.3 nM and < 15.
The matching figures for `COc1ccn2c(-c3cc(NCc4ccc(-c5cnn(C)c5)cc4)ncn3)cnc2c1` [A1, 6-{7-methoxyimidazo[1,2-a]pyridin-3-yl}-N-{[4-(1-methyl-1H-pyrazol-4-yl)phenyl]methyl}pyrimidin-4-amine]: 8.6 nM, 55 nM, 3.2 nM and < 15.

The values are drawn from patent US12655142B2 (Merck Patent GmbH, priority 2019, dated 2026).
